Reference: patent publication US4456593A, “Ristocetin .psi.-aglycone as an antibacterial agent” (Abbott Laboratories, priority 1982, dated 1984)
Values joined by “and” are separate entries in the source; they are usually repeats but may differ in a detail not shown here. Equal values may be shown once.

Key:
S. aureus = assay: Anti-infective Test - Cure of Acute Mouse Bacterial Infection (mouse protection), S. aureus; assay type: in vivo; conditions: for CD50 (curative dose50, total dose required to cure half the animals): dosed 1 and 5 hours post-infection, 95 percent confidence limits in brackets
Method: (§1) Anti-infective Test--Cure of Acute Mouse Bacterial Infection
(§2) To determine the ability of potential anti-microbial agents to cure mice of an otherwise lethal infection.
Bacterial strains used in this test have been previously tested and, if necessary, adapted to mice and are maintained on brain heart infusion (BHI) agar slants at 4° C. Tubes of BHI broth are inoculated from the slants and incubated for 18 hours at 37° C. Serial ten-fold dilutions of this culture are made in BHI broth. The bacterial suspensions used to infect mice are obtained by making the final ten-fold dilution in 5 percent aqueous hog gastric mucin (American Laboratories Incorporated). Mice are infected by an intraperitoneal injection of 0.75 ml. of the resulting suspension. The dilution of test organism selected (standard inoculum) is based on prior experience with that organism and is usually 10-100-fold more concentrated than the LD50 dilution, i.e., that concentration which when administered as described above causes 50 percent mortalities.
The antimicrobial test substance is dissolved at the desired concentration in a suitable vehicle (sterile water, unless otherwise specified) and four serial, two-fold dilutions of this solution are made with the vehicle.
In dosing the animals, all mice are considered to weigh 20 grams. The volume administered is always 0.5 ml. at 1 and 5 hours post-infection (total of 1.0 ml.), with half of the total dose given at each time.
Administration of Test Substances:
The test substance may be administered by any of the following routes:
2. Subcutaneously, at the nape of the neck,
3. Intramuscularly in the thigh,
4. Intravenously in the tail vein.
Female Swiss albino mice weighing 18 to 20 grams are divided randomly into groups of ten animals and housed one group to a cage. Food (standard mouse pellets) and water are supplied ad lib throughout the test. All animals are sacrificed at the conclusion of the test.
Group T0 is neither infected nor treated, but is observed for seven days. If more than one mortality occurs in this group, the data will be reviewed to determine is there is cause to invalidate the test.
Groups T1 through T4 are used to monitor the strength of the infection actually used in this experiment. These groups are infected but untreated. Group T1 is infected with the standard inoculum, and groups T2 through T4 are infected with successive ten-fold dilutions of the organism prepared such that only the final dilution in each case is made with 5 percent aqueous hog gastric mucin. These groups are observed for seven days, mortalities are recorded and used to determine the number of challenge LD50's (within ten-fold limits) present in the standard inoculum used to infect medicated groups of animals.
Groups T5 through T9 are infected intraperitoneally with the standard inoculum. Each group is treated with one of the two-fold dilutions of the test substance by a specified route of administration at 1 hour and 5 hours post infection. The animals are observed for seven days and mortalities are recorded.
Further sets of five groups of animals are infected and treated in the same manner as groups T5 through T9 for each additional test substance studied.
CD50's (the total dose, in mg./kg., required to cure half the animals) are calculated by standard statistical methods and are reported with 95 percent confidence limits where these are obtainable or annotated with PS (poor slope) where they are not.
This test is performed in primary and secondary variations. […]

E. coli (J) = assay: Anti-infective Test - Cure of Acute Mouse Bacterial Infection (mouse protection), E. coli; assay type: in vivo; conditions: E. coli (J) intraperitoneal infection in female Swiss albino mice; route I.V.; dosed 1 and 5 hours post-infection; observed seven days
Method: as §1, §2
Bacterial strains used in this test have been previously tested and, if necessary, adapted to mice and are maintained on brain heart infusion (BHI) agar slants at 4° C. Tubes of BHI broth are inoculated from the slants and incubated for 18 hours at 37° C. Serial ten-fold dilutions of this culture are made in BHI broth. The bacterial suspensions used to infect mice are obtained by making the final ten-fold dilution in 5 percent aqueous hog gastric mucin (American Laboratories Incorporated). […]
Groups T1 through T4 are used to monitor the strength of the infection actually used in this experiment. […] These groups are observed for seven days, mortalities are recorded and used to determine the number of challenge LD50's (within ten-fold limits) present in the standard inoculum used to infect medicated groups of animals.
Groups T5 through T9 are infected intraperitoneally with the standard inoculum. […] The animals are observed for seven days and mortalities are recorded. […]
CD50's (the total dose, in mg./kg., required to cure half the animals) are calculated by standard statistical methods and are reported with 95 percent confidence limits where these are obtainable or annotated with PS (poor slope) where they are not. […]

[1] = S. aureus (S) intraperitoneal infection in female Swiss albino mice, route I.V., observed seven days

Molecule	Percent Surviving Mice With Varying Drug Dose (S. aureus; S. aureus (S) infection in mice, route I.V., dose of this cell not printed as text)	CD50 (curative dose50, total dose required to cure half the animals) (S. aureus; S. aureus (SC) intraperitoneal infection in female Swiss albino mice, route cell is a drawing (not readable))	CD50 (curative dose50, total dose required to cure half the animals) (E. coli (J))	CD50 (curative dose50, total dose required to cure half the animals) (S. aureus; [1])	CD50 (curative dose50, total dose required to cure half the animals) (S. aureus; S. aureus (S) intraperitoneal infection in female Swiss albino mice, route S.C., observed seven days)
COC(=O)[C@H]1NC(=O)[C@H]2NC(=O)[C@H](NC(=O)[C@@H]3NC(=O)[C@H]4NC(=O)[C@H](NC(=O)[C@H](N)c5ccc(O)c(c5)Oc5cc4cc(O)c5C)[C@H](O)c4ccc(cc4)Oc4cc3cc(c4O)Oc3ccc(cc3)[C@H]2O)c2ccc(O)c(c2)-c2c(O)cc(O)cc21 [Compound 2, Ristocetin aglycone]	90%	2.7 (1.8-4.1) mg./kg.	50 mg/kg		
O--demethylristocetin aglycone [Compound 3]				9.3 (5.9-17.3) mg./kg.	
Ristocetin [Compound 1]			50 mg/kg	4.1 mg./kg. and 6.6 mg./kg. and 5.6 (4.2-7.5) mg./kg. and 6 mg./kg.	3.7 (2.4-5.7) mg./kg.
